From patent US10358426B2, “Fungicidal substituted 2-[2-halogenalkyl-4-(phenoxy)-phenyl]-1-[1,2,4]triazol-1-yl-ethanol compounds” (BASF Agro B.V., priority 2011, dated 2019)

Tests used:
[1] = tested on: Septoria tritici; assay: Preventative control of leaf blotch on wheat, inoculation seven days later (Septtr P7), greenhouse; assay type: in vivo
[2] = tested on: Septoria tritici; assay: Preventative control of leaf blotch on wheat, inoculation next day (Septtr P1), greenhouse; assay type: in vivo; conditions: for Disease (%) at 150 pm Septtr P1: 150 ppm, Use Example 9, untreated control 90; for Disease(%) at 150 ppm Septtr P1: Use Example 6, untreated control 80
[3] = tested on: Septoria tritici; assay: Curative control of leaf blotch on wheat (Septtr K7), greenhouse; assay type: in vivo; conditions: untreated control 90
[4] = tested on: Pyrenophora teres; assay type: cell-based; conditions: 32 ppm; Use Example 10 M6
[5] = tested on: Uncinula necator; assay: Control of powdery mildew on grape (Uncine P3), greenhouse; assay type: in vivo; conditions: untreated control 100
Method: Preventative Control of Leaf Blotch on Wheat Caused by Septoria tritici (Septtr P7) Grape cuttings were grown in pots to the 4 to 5 leaf stage. […] Three days later the treated plants were inoculated with spores of Uncinula necator by shaking heavily infestated stock plants over the treated pots. […] Preventative Fungicidal Control of Early Blight on Tomatoes (Alternaria solani) (Alteso P7)

[6] = tested on: Alternaria solani; assay: Preventative fungicidal control of early blight on tomatoes, inoculation seven days later (Alteso P7), greenhouse; assay type: in vivo; conditions: tomato; for Disease (%) at 63 ppm Alteso P7: untreated control 100; for Disease (%) at 16 ppm Alteso P7: untreated control 90
[7] = tested on: Pyricularia oryzae; assay: microbe, parasite or virus in culture; assay type: cell-based; conditions: for activity at 2 ppm: Pyricularia oryzae, read-out: growth (relative growth in % of control)
[8] = Use Example 11, untreated control 90
[9] = Use Example 8, untreated control 80
[10] = Use Example 6, untreated control 80

**Q.** Which “Disease (%) at 16 ppm Septtr P7” value [1, 8] does the source give for `COC(Cn1cncn1)c1ccc(Oc2ccc(Cl)cc2)cc1Cl` (centres unmarked) [DE3801233 compound 2, reference compound] here?
**A.** The value was 90%.

**Q.** And the “Disease (%) at 150 pm Septtr P1” value [2]?
**A.** The value was 30%.

**Q.** And the “Disease (%) at 16 ppm Septtr K7” value [3]?
**A.** Its value is 80%.

**Q.** For `OC(Cn1cncn1)c1ccc(Oc2ccc(Cl)cc2Cl)cc1C(F)(F)F` (centres unmarked) [I-13], which “growth (relative growth in % of control)” value [4] is on record?
**A.** The value was 1%.

**Q.** What does the source list for `OC(Cn1cncn1)c1ccc(Oc2ccc(Cl)cc2)cc1C(F)(F)F` (centres unmarked) [compound I-1]?
**A.** Disease (%) at 16 ppm Uncine P3 [5]: 0%; Disease (%) at 16 ppm Septtr P7 [1, 9]: 2%; Disease (%) at 16 ppm Septtr P7 [1, 8]: 3%; Disease (%) at 63 ppm Alteso P7 [6]: 3%; Disease(%) at 150 ppm Septtr P1 [2]: 0%; Growth (%) at 0.5 ppm Pyrior ([7]; Use Example 7): 47%

**Q.** With `CC(O)(Cn1cncn1)c1ccc(Oc2ccc(Cl)cc2)cc1C(F)(F)F` (centres unmarked) [compound I-2, 2-[4-(4-chloro-phenoxy)-2-trifluoromethyl-phenyl]-1-[1,2,4]triazol-1-yl-propan-2-ol] as the molecule, how does the “Disease (%) at 16 ppm Septtr P7” value [1, 10] read?
**A.** The value was 10%.

**Q.** And the “Disease (%) at 16 ppm Alteso P7” value [6]?
**A.** Its value is 15%.

**Q.** And the “Growth (%) at 0.5 ppm Pyrior” value ([7]; Use Example 6)?
**A.** The value was 68%.

**Q.** And the “Growth (%) at 0.5 ppm Pyrior” value ([7]; Use Example 7)?
**A.** Its value is 68%.

**Q.** Which “Growth (%) at 0.5 ppm Pyrior” value ([7]; Use Example 7) does the source give for `CCC(O)(Cn1cncn1)c1ccc(Oc2ccc(Cl)cc2)cc1C(F)(F)F` (centres unmarked) [compound I-3, 2-[4-(4-chloro-phenoxy)-2-trifluoromethyl-phenyl]-1[1,2,4]triazol-1-yl-butan-2-ol] here?
**A.** Its value is 58%.

**Q.** And the activity at 2 ppm [7]?
**A.** The activity at 2 ppm was ≤ 4%.

**Q.** With `CCCC(O)(Cn1cncn1)c1ccc(Oc2ccc(Cl)cc2)cc1C(F)(F)F` (centres unmarked) [compound I-4] as the molecule, how does the “Disease (%) at 16 ppm Septtr P7” value [1, 9] read?
**A.** The value was 25%.

**Q.** What about the “Growth (%) at 0.5 ppm Pyrior” value ([7]; Use Example 7) of the same molecule?
**A.** The value was 19%.

**Q.** What does the source list for `CC#CC(O)(Cn1cncn1)c1ccc(Oc2ccc(Cl)cc2)cc1C(F)(F)F` (centres unmarked) [compound I-6, 2-[4-(4-chlorophenoxy)-2-(trifluoromethyl)phenyl]-1-(1,2,4-triazol-1-yl)pent-3-yn-2-ol]?
**A.** Disease (%) at 16 ppm Septtr P7 [1, 9]: 0%; melting point: 137 °C; Growth (%) at 0.5 ppm Pyrior ([7]; Use Example 7): 37%

**Q.** For `CC(C)C(O)(Cn1cncn1)c1ccc(Oc2ccc(Cl)cc2)cc1C(F)(F)F` (centres unmarked) [compound I-7, 2-[4-(4-chlorophenoxy)-2-(trifluoromethyl)phenyl]-3-methyl-1-(1,2,4-triazol-1-yl)butan-2-ol], which melting point is on record?
**A.** Its melting point is 114 °C.

**Q.** For `COC(C)(Cn1cncn1)c1ccc(Oc2ccc(Cl)cc2)cc1C(F)(F)F` (centres unmarked) [compound I-10, 1-[2-[4-(4-chlorophenoxy)-2-(trifluoromethyl)phenyl]-2-methoxy-propyl]-1,2,4-triazole], which activity at 2 ppm [7] is on record?
**A.** Its activity at 2 ppm is ≤ 4%.

**Q.** Which “Disease (%) at 16 ppm Septtr P7” value [1, 8] does the source give for `COC(Cn1cncn1)c1ccc(Oc2ccc(Cl)cc2)cc1C(F)(F)F` (centres unmarked) [compound I-14] here?
**A.** Its value is 15%.

**Q.** And the “Disease (%) at 150 pm Septtr P1” value [2]?
**A.** Its value is 0%.

**Q.** What about the “Disease (%) at 16 ppm Septtr K7” value [3] of the same molecule?
**A.** Its value is 20%.

**Q.** For `CC(O)(Cn1cncn1)c1ccc(Oc2ccc(F)cc2)cc1C(F)(F)F` (centres unmarked) [compound I-16], which “Disease (%) at 150 pm Septtr P1” value [2] is on record?
**A.** Its value is 0%.

**Q.** For `OC(Cn1cncn1)c1ccc(Oc2ccc(Cl)cc2)cc1Cl` (centres unmarked) [compound V6, reference compound], which “Disease (%) at 16 ppm Uncine P3” value [5] is on record?
**A.** Its value is 40%.

**Q.** What about the “Disease (%) at 16 ppm Septtr P7” value [1, 8] of the same molecule?
**A.** The value was 30%.

**Q.** And the “Disease (%) at 63 ppm Alteso P7” value [6]?
**A.** The value was 40%.

**Q.** What about the “Disease(%) at 150 ppm Septtr P1” value [2] of the same molecule?
**A.** The value was 60%.

**Q.** Which “Disease (%) at 16 ppm Septtr P7” value [1, 10] does the source give for `CC(O)(Cn1cncn1)c1ccc(Oc2ccc(Cl)cc2)cc1Cl` (centres unmarked) [compound V18, reference compound] here?
**A.** The value was 60%.

**Q.** And the “Disease (%) at 16 ppm Septtr P7” value [1, 8]?
**A.** Its value is 67%.

**Q.** What about the “Disease (%) at 16 ppm Alteso P7” value [6] of the same molecule?
**A.** The value was 60%.

**Q.** What about the “Growth (%) at 0.5 ppm Pyrior” value ([7]; Use Example 6) of the same molecule?
**A.** Its value is 82%.

**Q.** And the “Growth (%) at 0.5 ppm Pyrior” value ([7]; Use Example 7)?
**A.** The value was 82%.

**Q.** Which results are given for `CC(O)(Cn1cncn1)c1ccc(Oc2ccc(F)cc2)cc1Cl` (centres unmarked) [compound V19, reference compound]?
**A.** Disease (%) at 16 ppm Septtr P7 [1, 9]: 60%; Disease (%) at 150 pm Septtr P1 [2]: 40%
